Results: the supplement of paper PMC10307832

Legend:
Experiment in all cases: relative viability (nuclei count vs DMSO), 5 days (fraction); higher = more cells survive
[1] = tested on: 201T
Procedure, shortened: (§1)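 Relative viability equals treated-well nuclei counts divided by vehicle-well nuclei counts. Counts came from 4× images of lung cancer cell lines grown in 1536-well plates for 5 days after pin-tool dosing on the day after seeding. Dosing used one drug alone or a fixed anchor-drug dose plus five library-drug doses (not always all listed) in √10 steps, and values are medians of duplicate plates.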

[2] = tested on: BEN
Procedure, shortened: as §1

[3] = tested on: COR-L 105
Procedure, shortened: as §1

[4] = tested on: EKVX
Procedure, shortened: as §1

[5] = tested on: EPLC-272H
Procedure, shortened: as §1

[6] = tested on: H3255
Procedure, shortened: as §1

[7] = tested on: HCC-44
Procedure, shortened: as §1

[8] = tested on: HCC-827
Procedure, shortened: as §1

[9] = tested on: HOP-62
Procedure, shortened: as §1

[10] = tested on: LCLC-97TM1
Procedure, shortened: as §1

[11] = tested on: LOU-NH91
Procedure, shortened: as §1

[12] = tested on: LU99A
Procedure, shortened: as §1

[13] = tested on: NCI-H1395
Procedure, shortened: as §1

[14] = tested on: NCI-H1437
Procedure, shortened: as §1

[15] = tested on: NCI-H1666
Procedure, shortened: as §1

[16] = tested on: NCI-H1975
Procedure, shortened: as §1

[17] = tested on: NCI-H2085
Procedure, shortened: as §1

[18] = tested on: NCI-H2087
Procedure, shortened: as §1

[19] = tested on: NCI-H2126
Procedure, shortened: as §1

[20] = tested on: NCI-H358
Procedure, shortened: as §1

[21] = tested on: NCI-H647
Procedure, shortened: as §1

[22] = tested on: PC-3 [JPC-3]
Procedure, shortened: as §1

[23] = tested on: SW 1573
Procedure, shortened: as §1

For `CC(C)Oc1cc(Nc2nc(N[C@@H](C)c3ccc(F)cn3)ncc2Cl)n[nH]1` [AZ23] + CS(=O)(=O)CCNCc1ccc(-c2ccc3ncnc(Nc4ccc(OCc5cccc(F)c5)c(Cl)c4)c3c2)o1 [Lapatinib] (partner 2 µM), the relative viability ([1]; first compound 0.01 µM) was 1.03, the relative viability ([1]; first compound 0.03162 µM) was 1 and the relative viability ([1]; first compound 0.3162 µM) was 1.1. For the same molecule, the relative viability ([2]; first compound 0.01 µM) was 0.807, the relative viability ([2]; first compound 0.03162 µM) was 0.906 and the relative viability ([2]; first compound 0.3162 µM) was 0.708. For the same molecule, the relative viability ([3]; first compound 0.01 µM) was 0.35, the relative viability ([3]; first compound 0.03162 µM) was 0.382 and the relative viability ([3]; first compound 0.3162 µM) was 0.373. The relative viability ([4]; first compound 0.01 µM) was 0.188, the relative viability ([4]; first compound 0.03162 µM) was 0.207 and the relative viability ([4]; first compound 0.3162 µM) was 0.192. The relative viability ([5]; first compound 0.01 µM) was 0.885, the relative viability ([5]; first compound 0.03162 µM) was 1.16 and the relative viability ([6]; first compound 0.01 µM) was 0.203. It also gave a relative viability ([6]; first compound 0.03162 µM) of 0.252, a relative viability ([6]; first compound 0.3162 µM) of 0.279 and a relative viability ([7]; first compound 0.01 µM) of 1.01. For the same molecule, the relative viability ([7]; first compound 0.03162 µM) was 1.21, the relative viability ([7]; first compound 0.3162 µM) was 1.09 and the relative viability ([8]; first compound 0.01 µM) was 0.205. For the same molecule, the relative viability ([8]; first compound 0.03162 µM) was 0.172, the relative viability ([8]; first compound 0.3162 µM) was 0.21 and the relative viability ([9]; first compound 0.01 µM) was 1.14. For the same molecule, the relative viability ([9]; first compound 0.03162 µM) was 0.985, the relative viability ([9]; first compound 0.3162 µM) was 0.966 and the relative viability ([10]; first compound 0.01 µM) was 0.881. For the same molecule, the relative viability ([10]; first compound 0.03162 µM) was 0.842, the relative viability ([10]; first compound 0.3162 µM) was 1.23 and the relative viability ([11]; first compound 0.01 µM) was 0.674. For the same molecule, the relative viability ([11]; first compound 0.03162 µM) was 0.787, the relative viability ([11]; first compound 0.3162 µM) was 0.716 and the relative viability ([12]; first compound 0.01 µM) was 1.2. The relative viability ([12]; first compound 0.03162 µM) was 1.08, the relative viability ([12]; first compound 0.3162 µM) was 1.09 and the relative viability ([13]; first compound 0.03162 µM) was 0.943. For the same molecule, the relative viability ([13]; first compound 0.3162 µM) was 1.03, the relative viability ([14]; first compound 0.01 µM) was 0.729 and the relative viability ([14]; first compound 0.03162 µM) was 0.975. The relative viability ([14]; first compound 0.3162 µM) was 0.957, the relative viability ([15]; first compound 0.01 µM) was 0.747 and the relative viability ([15]; first compound 0.03162 µM) was 0.565. The relative viability ([15]; first compound 0.3162 µM) was 0.591, the relative viability ([16]; first compound 0.01 µM) was 1.27 and the relative viability ([16]; first compound 0.03162 µM) was 0.961. It also gave a relative viability ([16]; first compound 0.3162 µM) of 0.862, a relative viability ([17]; first compound 0.01 µM) of 0.771 and a relative viability ([17]; first compound 0.03162 µM) of 0.735. The relative viability ([17]; first compound 0.3162 µM) was 0.772, the relative viability ([18]; first compound 0.01 µM) was 1.17 and the relative viability ([18]; first compound 0.03162 µM) was 1.17. It also gave a relative viability ([18]; first compound 0.3162 µM) of 1.05, a relative viability ([19]; first compound 0.01 µM) of 0.838 and a relative viability ([19]; first compound 0.03162 µM) of 0.821. The relative viability ([19]; first compound 0.3162 µM) was 0.842, the relative viability ([20]; first compound 0.01 µM) was 0.505 and the relative viability ([20]; first compound 0.03162 µM) was 0.433. It also gave a relative viability ([20]; first compound 0.3162 µM) of 0.392, a relative viability ([21]; first compound 0.01 µM) of 1.71 and a relative viability ([21]; first compound 0.03162 µM) of 1.27. It also gave a relative viability ([21]; first compound 0.3162 µM) of 1.34, a relative viability ([22]; first compound 0.01 µM) of 0.464 and a relative viability ([22]; first compound 0.03162 µM) of 0.489. It also gave a relative viability ([22]; first compound 0.3162 µM) of 0.454, a relative viability ([23]; first compound 0.01 µM) of 1.21 and a relative viability ([23]; first compound 0.03162 µM) of 1.11. It also gave a relative viability ([23]; first compound 0.3162 µM) of 0.939.
